Data from PMC5513444, “The synthesis and evaluation of triazolopyrimidines as anti-tubercular agents” (Bioorganic & Medicinal Chemistry, 2017).
≈ marks a conversion by molar mass, not a printed value.

How the values were obtained:
M. tuberculosis H37Rv = assay: MIC90 against M. tuberculosis in liquid medium; assay type: cell-based, Mycobacterium tuberculosis; conditions: liquid medium 7H9-Tw-OADC, aerobic, 5 days, average ± SD of two independent experiments; for MIC90: Mycobacterium tuberculosis, H37RV, 120 h, read-out: MIC (MIC90, minimum concentration required to inhibit growth of M. tuberculosis by 90%)
HepG2 cells = assay: Cytotoxicity against HepG2 cell line (CellTiter-Glo); assay type: cell-based; conditions: for Selectivity index (SI) = IC50/MIC90: HepG2 IC50 / M. tuberculosis MIC90; for IC50: Homo sapiens, 48 h, HepG2, 2 days incubation, read-out: IC50 (concentration required to reduce the viability of HepG2 cells by 50%)

## COc1ccc(CCNc2cc(C3CC3)nc3ncnn23)cc1 [Compound 22]
M. tuberculosis H37Rv
  MIC90: 5.8 ± 1.6 µM (≈ 1.79 µg/mL)
HepG2 cells
  Selectivity index (SI) = IC50/MIC90: >17
  IC50: > 100 µM

## c1ccc(CCNc2cc(-c3ccccn3)nc3ncnn23)cc1 [Compound 51, N-Phenethyl-5-(pyridin-2-yl)-[1,2,4]triazolo[1,5-a]pyrimidin-7-amine]
M. tuberculosis H37Rv
  MIC90: 2.4 ± 1.3 µM (≈ 0.759 µg/mL)
HepG2 cells
  Selectivity index (SI) = IC50/MIC90: >46
  IC50: > 100 µM
other
  melting point: 214 to 215 °C

## Fc1ccc(CCNc2cc(-c3ccccn3)nc3ncnn23)cc1 [Compound 57, N-(4-Fluorophenethyl)-5-(pyridin-2-yl)-[1,2,4]triazolo[1,5-a]pyrimidin-7-amine]
M. tuberculosis H37Rv
  MIC90: 4.8 ± 1.3 µM (≈ 1.6 µg/mL)
HepG2 cells
  Selectivity index (SI) = IC50/MIC90: 17
  IC50: 81 µM
other
  melting point: 190 to 192 °C

## COc1ccc(CCN(C)c2cc(-c3ccccc3)nc3ncnn23)cc1 [Compound 61, N-(4-Methoxyphenethyl)-N-methyl-5-phenyl-[1,2,4]triazolo[1,5-a]pyrimidin-7-amine]
M. tuberculosis H37Rv
  MIC90: > 20 µM
HepG2 cells
  IC50: 17 µM
other
  melting point: 170 to 171 °C

## c1ccc(-c2cc(NCCc3cccnc3)n3ncnc3n2)cc1 [Compound 42, 5-Phenyl-N-(2-(pyridin-3-yl)ethyl)-[1,2,4]triazolo[1,5-a]pyrimidin-7-amine]
M. tuberculosis H37Rv
  MIC90: > 20 µM
HepG2 cells
  IC50: > 100 µM
other
  melting point: 169 to 171 °C

## c1ccc(-c2cc(NCCc3ccncc3)n3ncnc3n2)nc1 [Compound 54, 5-(Pyridin-2-yl)-N-(2-(pyridin-4-yl)ethyl)-[1,2,4]triazolo[1,5-a]pyrimidin-7-amine]
M. tuberculosis H37Rv
  MIC90: > 20 µM
HepG2 cells
  IC50: > 100 µM
other
  melting point: 201 to 202 °C

## FC(F)(F)Oc1ccc(CCNc2cc(-c3ccccn3)nc3ncnn23)cc1 [Compound 59, 5-(Pyridin-2-yl)-N-(4-(trifluoromethoxy)phenethyl)-[1,2,4]triazolo[1,5-a]pyrimidin-7-amine]
M. tuberculosis H37Rv
  MIC90: 1.6 ± 1.1 µM (≈ 0.641 µg/mL)
HepG2 cells
  Selectivity index (SI) = IC50/MIC90: >72
  IC50: > 100 µM
other
  melting point: 163 to 165 °C

## CCCNc1cc(-c2ccccc2)nc2ncnn12 [Compound 31, 5-Phenyl-N-propyl-[1,2,4]triazolo[1,5-a]pyrimidin-7-amine]
M. tuberculosis H37Rv
  MIC90: > 20 µM
HepG2 cells
  IC50: 94 µM
other
  melting point: 139 to 140 °C

## c1ccc(-c2cc(NC3CC3)n3ncnc3n2)cc1 [Compound 34, N-Cyclopropyl-5-phenyl-[1,2,4]triazolo[1,5-a]pyrimidin-7-amine]
M. tuberculosis H37Rv
  MIC90: > 20 µM
HepG2 cells
  IC50: > 100 µM
other
  melting point: 193 to 195 °C

## CCNc1cc(-c2ccccc2)nc2ncnn12 [Compound 30, N-Ethyl-5-phenyl-[1,2,4]triazolo[1,5-a]pyrimidin-7-amine]
M. tuberculosis H37Rv
  MIC90: > 20 µM
HepG2 cells
  IC50: 37 µM
other
  melting point: 170 to 172 °C

## c1ccc(-c2cc(NC3CCC3)n3ncnc3n2)cc1 [Compound 35, N-Cyclobutyl-5-phenyl-[1,2,4]triazolo[1,5-a]pyrimidin-7-amine]
M. tuberculosis H37Rv
  MIC90: > 20 µM
HepG2 cells
  IC50: 57 µM
other
  melting point: 193 to 194 °C

## CCc1ccc(-c2cc(NCCc3ccc(OC)cc3)n3ncnc3n2)cc1 [Compound 10, 5-(4-Ethylphenyl)-N-(4-methoxyphenethyl)-[1,2,4]triazolo[1,5-a]pyrimidin-7-amine]
M. tuberculosis H37Rv
  MIC90: > 20 µM
HepG2 cells
  IC50: > 100 µM

## COc1ccc(C2CCN(c3cc(-c4ccccn4)nc4ncnn34)C2)cc1 (stereo not shown) [Compound 62, 7-(3-(4-Methoxyphenyl)pyrrolidin-1-yl)-5-(pyridin-2-yl)-[1,2,4]triazolo[1,5-a]pyrimidine]
M. tuberculosis H37Rv
  MIC90: > 20 µM
HepG2 cells
  IC50: 23 µM
other
  melting point: 222 to 223 °C

## Fc1ccc(CCNc2cc(-c3ccccc3)nc3ncnn23)cc1 [Compound 46, N-(4-Fluorophenethyl)-5-phenyl-[1,2,4]triazolo[1,5-a]pyrimidin-7-amine]
M. tuberculosis H37Rv
  MIC90: > 20 µM
HepG2 cells
  IC50: 50 µM
other
  melting point: 169 to 170 °C

## COc1ccc(CCNc2cc(-c3ccc(OC)cc3)nc3ncnn23)cc1 [Compound 7, N-(4-Methoxyphenethyl)-5-(4-methoxyphenyl)-[1,2,4]triazolo[1,5-a]pyrimidin-7-amine]
M. tuberculosis H37Rv
  MIC90: > 20 µM
HepG2 cells
  IC50: > 100 µM
other
  melting point: 130 to 131 °C

## c1ccc(-c2cc(NCCc3ccccn3)n3ncnc3n2)cc1 [Compound 41, 5-Phenyl-N-(2-(pyridin-2-yl)ethyl)-[1,2,4]triazolo[1,5-a]pyrimidin-7-amine]
M. tuberculosis H37Rv
  MIC90: > 20 µM
HepG2 cells
  IC50: > 100 µM
other
  melting point: 111 to 114 °C

## COc1ccc(C2CCCN(c3cc(-c4ccccn4)nc4ncnn34)C2)cc1 (stereo not shown) [Compound 63, 7-(3-(4-Methoxyphenyl)piperidin-1-yl)-5-(pyridin-2-yl)-[1,2,4]triazolo[1,5-a]pyrimidine]
M. tuberculosis H37Rv
  MIC90: > 20 µM
HepG2 cells
  IC50: 16 µM

## c1ccc(-c2cc(NCCc3cccnc3)n3ncnc3n2)nc1 [Compound 53, 5-(Pyridin-2-yl)-N-(2-(pyridin-3-yl)ethyl)-[1,2,4]triazolo[1,5-a]pyrimidin-7-amine]
M. tuberculosis H37Rv
  MIC90: > 20 µM
HepG2 cells
  IC50: > 100 µM
other
  melting point: 212 to 213 °C

## COc1ccc(CCNc2cc(-c3ccncc3)nc3ncnn23)cc1 [Compound 18, N-(4-Methoxyphenethyl)-5-(pyridin-4-yl)-[1,2,4]triazolo[1,5-a]pyrimidin-7-amine]
M. tuberculosis H37Rv
  MIC90: > 20 µM
HepG2 cells
  IC50: 69 µM
other
  melting point: 217 to 219 °C

## c1ccc(-c2ccn3ncnc3n2)cc1 [Compound 27, 5-Phenyl-[1,2,4]triazolo[1,5-a]pyrimidine]
M. tuberculosis H37Rv
  MIC90: > 20 µM
HepG2 cells
  IC50: > 20 µM
other
  melting point: 179 to 181 °C

## COc1ccc(CCNc2cc(-c3ccccn3)nc3nccn23)cc1 [Compound 70, N-(4-Methoxyphenethyl)-7-(pyridin-2-yl)imidazo[1,2-a]pyrimidin-5-amine]
M. tuberculosis H37Rv
  MIC90: 0.22 ± 0.07 µM (≈ 0.076 µg/mL)
HepG2 cells
  Selectivity index (SI) = IC50/MIC90: 142
  IC50: 30 µM
other
  melting point: 234 to 235 °C

## Clc1ccc(CCNc2cc(-c3ccccn3)nc3ncnn23)cc1 [Compound 60, N-(4-Chlorophenethyl)-5-(pyridin-2-yl)-[1,2,4]triazolo[1,5-a]pyrimidin-7-amine]
M. tuberculosis H37Rv
  MIC90: 0.76 ± 0.25 µM (≈ 0.267 µg/mL)
HepG2 cells
  Selectivity index (SI) = IC50/MIC90: >135
  IC50: > 100 µM

## FC(F)(F)c1ccc(CCNc2cc(-c3ccccn3)nc3ncnn23)cc1 [Compound 58, 5-(Pyridin-2-yl)-N-(4-(trifluoromethyl)phenethyl)-[1,2,4]triazolo[1,5-a]pyrimidin-7-amine]
M. tuberculosis H37Rv
  MIC90: 0.98 ± 0.4 µM (≈ 0.377 µg/mL)
HepG2 cells
  Selectivity index (SI) = IC50/MIC90: >119
  IC50: > 100 µM

## COc1ccc(CCNc2cc(-c3ccccc3Cl)nc3ncnn23)cc1 [Compound 12, 5-(2-Chlorophenyl)-N-(4-methoxyphenethyl)-[1,2,4]triazolo[1,5-a]pyrimidin-7-amine]
M. tuberculosis H37Rv
  MIC90: > 20 µM
HepG2 cells
  IC50: > 100 µM

## COc1ccc(C2CN(c3cc(-c4ccccn4)nc4ncnn34)CCO2)cc1 (stereo not shown) [Compound 64, 2-(4-Methoxyphenyl)-4-(5-(pyridin-2-yl)-[1,2,4]triazolo[1,5-a]pyrimidin-7-yl)morpholine]
M. tuberculosis H37Rv
  MIC90: > 20 µM
HepG2 cells
  IC50: 50 µM

## COc1ccc(CCNc2cc(-c3ccccc3)nc3ncnn23)cc1 [Compound 1, N-(4-methoxyphenethyl)-5-phenyl-[1,2,4]triazolo[1,5-a]pyrimidin-7-amine]
M. tuberculosis H37Rv
  MIC90: 3.1 µM (≈ 1.07 µg/mL)
  MIC (MIC90, minimum concentration required to inhibit growth of M. tuberculosis by 90%): 3.1 ± 1.3 µM
HepG2 cells
  Selectivity index (SI) = IC50/MIC90: >32
  IC50: > 100 µM
